From patent publication US9404086B2, “Method for cell differentiation” (GE HEALTHCARE UK LIMITED, priority 2014, dated 2016)

Assays:
Type in all cases: cell-based, human
hESC [1] = assay: Flow cytometry analysis of differentiation markers at day 4 of DE differentiation; settings: for differentiation to DE: supplementation of Activin A, compared with Activin A and DMSO
Description: Definitive endoderm formation: hESC were passaged onto the appropriate culture flasks or plates at 0.6×10^5 cells/cm^2 and cultured for 2 days. To initiate definitive endoderm differentiation hESC were washed once with PBS and cultured in RMPI 1640 medium (Life Technologies) supplemented with 100 ng/ml of Activin A (R&D Systems) and 0.25 to 2% of DMSO (Sigma). FBS (0.2%) was added after first 24 hours and cells were cultured for four days with media changed daily.
Cells cultured in 6 well plates were washed twice in PBS and treated with 0.25% trypsin-EDTA (Life Technologies) to obtain single cell suspensions. Trypsin was inactivated after 5 min of incubation by adding medium containing 10% FBS. Cells were counted, centrifuged at 300 g for 5 min, washed twice with PBS and subsequently fixed in 2% paraformaldehyde (USB). Following 15 min incubation at room temperature cells were washed in PBS and perm/wash buffer (PWB) (BD) and subsequently resuspended at 4×10^6 cells/ml in perm/wash buffer supplemented with 0.1 mg/ml human IgG (Sigma) and 10% serum from the species of secondary antibody (Life Technologies). Cells were incubated for 30 min at 4° C. and then 50 μl aliquots (2×10^5 cells) were transferred to individual 5 ml polystyrene round-bottom FACS assay tubes. For double staining of cells with OCT4 and SOX17, cells were stained in perm/wash buffer first with mouse anti-OCT4 (Cell Signalling) and incubated for 1 h at room temperature, following by two washes with PBS and incubation in perm/wash buffer with goat anti-mouse-FITC (Molecular Probes) and goat anti-SOX17-APC (R&D Systems). Following 1 h incubation at 4° C., samples were washed twice and resuspended in 0.2% FBS in PBS in a final volume of […]. Separate staining for OCT4 and SOX17 was performed analogously. Cells were analysed on a BD FACSCalibur flow cytometer and data analysed using CellQuest software.

hESC [2] = assay: qRT-PCR analysis of differentiation markers at day 4 of DE differentiation
Description: Definitive endoderm formation: hESC were passaged onto the appropriate culture flasks or plates at 0.6×10^5 cells/cm^2 and cultured for 2 days. To initiate definitive endoderm differentiation hESC were washed once with PBS and cultured in RMPI 1640 medium (Life Technologies) supplemented with 100 ng/ml of Activin A (R&D Systems) and 0.25 to 2% of DMSO (Sigma). FBS (0.2%) was added after first 24 hours and cells were cultured for four days with media changed daily. Isolation of total cellular RNA was performed using an illustra RNAspin Mini RNA Isolation Kit (GE Healthcare) and the concentration of RNA in each sample measured on a NanoDrop 1000 spectrophotometer. 1 μg of extracted total RNA was reverse transcribed using High Capacity cDNA Reverse Transcription Kit (Applied Biosystems). TaqMan quantitative PCR was performed using unlabelled PCR primers and FAM-based probes (Applied Biosystems by Life Technologies) in conjunction with TaqMan Universal PCR Master Mix, No AmpErase UNG (Applied Biosystems). Concentrated TaqMan PCR Master Mix (2×) was combined with water and cDNA. The final concentration of Master Mix was achieved by addition of appropriate concentrations of primers/FAM probes diluted in water. Reactions were carried out on a 7900HT Fast Real-Time PCR System (Applied Biosystems). qRT-PCR cycling conditions were: 95° C. for 10 min, and subsequently 45 cycles of 95° C. for 10 sec and 60° C. for 1 min. Each sample was run in triplicate with GAPDH as a reference gene. Analysis of results was performed in SDS Software for the 7900HT Fast Real-Time PCR System. Relative quantification was calculated against GAPDH and B-Actin housekeeping genes and standard derivations report n=3 replicates from each sample.

hESC [3] = assay: Immunofluorescence analysis of differentiation markers at day 4 of DE differentiation
Description: Definitive endoderm formation: hESC were passaged onto the appropriate culture flasks or plates at 0.6×10^5 cells/cm^2 and cultured for 2 days. To initiate definitive endoderm differentiation hESC were washed once with PBS and cultured in RMPI 1640 medium (Life Technologies) supplemented with 100 ng/ml of Activin A (R&D Systems) and 0.25 to 2% of DMSO (Sigma). FBS (0.2%) was added after first 24 hours and cells were cultured for four days with media changed daily. For detection of stage-specific markers, cells were grown and differentiated in 96 well plates (uClear black plate with clear flat bottom, Greiner). Cells were rinsed twice with PBS and fixed in 4% paraformaldehyde (USB) for 15 min at room temperature and then washed twice with PBS and blocked for 30 min at RT in 1% BSA (Life Technologies) and 0.1 mg/ml human IgG (Sigma) in perm/wash buffer (BD). Cells were subsequently stained for 2 hours at RT or overnight at 4° C. with primary rabbit anti-OCT4 (Cell Signaling), mouse and anti-SOX17 (Abcam) antibodies diluted in perm/wash buffer. Cells were subsequently washed several times with perm/wash buffer and incubated at 4° C. in the dark with goat anti-mouse-FITC and chicken anti-rabbit-Cy5 (Molecular probes) diluted 1:400 in perm/wash buffer. […]

hESC [4] = assay: Differentiation of hESC-derived DE towards hepatic like cells (AFP day 12, ALB day 28); settings: day 28 (hepatic like cells), with increasing concentrations of DMSO during DE stage
Description: Definitive endoderm formation: hESC were passaged onto the appropriate culture flasks or plates at 0.6×10^5 cells/cm^2 and cultured for 2 days. To initiate definitive endoderm differentiation hESC were washed once with PBS and cultured in RMPI 1640 medium (Life Technologies) supplemented with 100 ng/ml of Activin A (R&D Systems) and 0.25 to 2% of DMSO (Sigma). FBS (0.2%) was added after first 24 hours and cells were cultured for four days with media changed daily. Hepatic specification: hESC-derived definitive endoderm cells were washed once with PBS and cultured in KO-DMEM medium and 2% KOSR supplemented with 1 mM L-glutamine, NEAA (all from Life Technologies), B-Mercaptoethanol (Sigma), 30 ng/ml BMP2, 10 ng/ml FGF4, 0.5% DMSO for 5 days with BMP4. […] Isolation of total cellular RNA was performed using an illustra RNAspin Mini RNA Isolation Kit (GE Healthcare) and the concentration of RNA in each sample measured on a NanoDrop 1000 spectrophotometer. […] TaqMan quantitative PCR was performed using unlabelled PCR primers and FAM-based probes (Applied Biosystems by Life Technologies) in conjunction with TaqMan Universal PCR Master Mix, No AmpErase UNG (Applied Biosystems). […] Relative quantification was calculated against GAPDH and B-Actin housekeeping genes and standard derivations report n=3 replicates from each sample.

[5] = 0.5% and 1% DMSO added to Activin A containing medium, day 4, relative to control cells treated with Activin A alone
[6] = increasing concentrations of DMSO with Activin A, day 4

`C[S+](C)[O-]` [DMSO, dimethyl sulfoxide] was tested, and the OCT4 expressing cells (hESC [1]; [5]) was “decrease”, the SOX17 expressing cells (hESC [1]; [5]) was “increase” and the OCT4 expression (hESC [1]; increasing concentrations of DMSO with Activin A, day 4, flow cytometry confirmation) was “down regulation”. For the same molecule, the “expression of pluripotency genes” value (hESC [2]; 0.5% to 0.6% DMSO added to Activin A-based medium during definitive endoderm derivation) was “rapid down regulation”, the “DE differentiation compared with established prior art method (Hay et al)” value (hESC [2]; DMSO method day 4 (KCGE D4) versus Hay D5) was “significant improvement” and the CXCR4 expression (hESC [2]; [6]) was “up regulation”. For the same molecule, the GATA4 expression (hESC [2]; [6]) was “up regulation”, the OCT4 expression (hESC [2]; [6]) was “significant dose dependent decrease” and the SOX17 expression (hESC [2]; [6]) was “up regulation”. For the same molecule, the OCT4 expression (hESC [3]; increasing concentrations of DMSO from 0% to 2% with Activin A) was “down regulation”, the “DMSO concentration at which SOX 17 staining was maximum” value (hESC [3]; with Activin A) was 0.6% and the ALB expression (hESC [4]) was “increased”.

“FGF2: growth factor reported to aid in DE differentiation, used in conjunction with Activin A” was tested, and the “differentiation to DE” value (hESC [1]) was “inferior”.

B1: Wnt3a: growth factor reported to aid in DE differentiation, used in conjunction with Activin A (protein, UniProt P56704 19-352, looked up)
Protein Wnt-3a: SYPIWWSLAVGPQYSSLGSQPILCASIPGLVPKQLRFCRNYVEIMPSVAEGIKIGIQECQHQFRGRRWNCTTVHDSLAIFGPVLDKATRESAFVHAIASAGVAFAVTRSCAEGTAAICGCSSRHQGSPGKGWKWGGCSEDIEFGGMVSREFADARENRPDARSAMNRHNNEAGRQAIASHMHLKCKCHGLSGSCEVKTCWWSQPDFRAIGDFLKDKYDSASEMVVEKHRESRGWVETLRPRYTYFKVPTERDLVYYEASPNFCEPNPETGSFGTRDRTCNVSSHGIDGCDLLCCGRGHNARAERRREKCRCVFHWCCYVSCQECTRVYDVHTCK
For B1, the “differentiation to DE” value (hESC [1]) was “inferior”.
